Entries after “also recorded” stand apart in the source; their conditions may differ.
What was measured:
[1] = test system: rats having established patterns of pathologically-high alcohol consumption; test: Beer and water consumption in the 2.5 hr after a single oxytocin injection in alcohol-dependent animals (Example 4, FIG. 8); assay type: in vivo, rat; conditions: 2.5 hr following 1 mg/kg IP
Protocol: FIG. 8 provides graphical representations showing total consumption (ml) of full strength beer (panel A) and water (panel B) in rats having established patterns of pathologically-high alcohol consumption over several months, in a 2.5 hr period following intraperitoneal (IP) injection with 1 mg/kg oxytocin (OXY, n=8) or saline vehicle (VEH, n=8). […] Alcohol consumption in animals treated with oxytocin was reduced in the short-term by about 25% to about 40% or about 50% or about 60%. In contrast, consumption of water was unchanged in animals receiving oxytocin or saline vehicle placebo.
Alcohol-dependent animals were provided a single injection i/p of oxytocin (1 mg/kg body weight) and their alcohol consumption levels in the 2.5 hr period following therapy were determined.

[2] = test system: alcohol-dependent adults and non-dependent problem drinkers; test: Human Study 2: intranasal oxytocin, alcohol self-administration; assay type: in vivo; conditions: versus placebo
Protocol: In a second clinical study in humans, the effect(s) of intranasal oxytocin therapy on alcohol self-administration are determined in a population of alcohol-dependent adults and in a population of non-dependent problem drinkers.
At least forty male and female adults are recruited from the community to the Brain and Mind Research Institute (BMRI) to participate in a laboratory based investigation looking at the impact of oxytocin on alcohol craving. Participants have a current diagnosis of alcohol dependence according to the Diagnostic and Statistical Manual of Mental Disorders, Fourth Edition (DSM-IV) as determined by the Structured Clinical Interview for the DSM-IV (SCID-IV) or are non-dependent subjects scoring higher than 8 on AUDIT. Male and female participants are chronic hazardous drinkers consuming more than 20 (females) or 25 (males) standard drinks per week (i.e., females: more than 200 g alcohol per week; males more than 250 g alcohol per week), respectively, and have not been abstinent more than 3 days per week in the 30 days preceding commencement of the trial as determined by AUDIT.
All subjects are tested for baseline SCID-IV, AUDIT, PDQ, 90-day TLFB, DASS-21, PANAS, AUQ, FTND, urine toxicology, plasma oxytocin and cortisol, liver function testing, heart rate (HR), blood pressure (BP), and ECG, and females are pregnancy-tested and their menstrual cycles determined, as described herein above for Study 2. Neuropsychological evaluations are also performed e.g., according to CANTAB. Additionally, subjects are subjected to attention bias assessment task testing, wherein attention biases to alcohol-related cues are determined using e.g., stroop and dot-probe methodology. Subjects also participate in a reward learning computer task, to assess motivation for their alcohol consumption. Based on their test results, subjects are selected for recruitment in the study.
Recruited subjects are administered placebo or oxytocin intranasally (80 IU per day: 40 IU at 9:00 am and 40 IU at 9:00 pm) over a period of 7 days, following completion of baseline measurements. Subjects are instructed on self-administration procedures. Drug administration commences on the evening of the day of the clinical and medical interview and ceases on a morning one-week later, after 14 doses have been administered. Subjects are randomized to oxytocin-receiving or placebo-receiving groups, and the groups are stratified according to gender, age, and drinking behavior. Subjects are contacted by telephone daily to confirm medication compliance and determine adverse events.
Subjects returning to the BMRI on the afternoon of the final day of testing are evaluated. Bloods for plasma oxytocin and cortisol levels are collected before commencement. A urine toxicology test and alcohol breathalyzer test are also performed, to determine whether subjects have been alcohol-free and drug-free at the time of testing. Subjects are tested according to DASS-21, PANAS, 7-day TLFB, and AUQ, and neuropsychological evaluations e.g., according to CANTAB are performed. Changes in mood, drinking behavior and neuropsychology are evaluated for both groups by comparison with baseline evaluations. Changes in smoking behavior are evaluated by FTND testing and comparison with baseline evaluations. HR and BP records over the period and at cessation are also determined and compared to baseline levels before commencement of therapy. […]

[3] = test system: P rats; test: Lickometer choice of Vodka Cruiser versus 3% sucrose after acute oxytocin in alcohol-exposed P rats (Example 1); assay type: in vivo, rat
Source text: P rats (8 female and 8 male P rats) were provided by Professor Andrew Lawrence at the Howard Florey Institute, Melbourne, Australia. The animals were of adolescent age (i.e., 28 days-old) on arrival at the animal house. Animals were housed in same-sex cages at a density of 3-4 rats per cage. Over the following 2 months, animals received intermittent exposure to various alcoholic beverages in their home cages e.g., white wine, red wine, beer, Vodka Cruiser, Bacardi Breezer, but were alcohol-free for the month preceding testing.
Testing occurred in a lickometer apparatus. Rats were placed in a small metal cage where they have a choice of two tubes for supply of liquids, wherein the tube were designed such that every third lick at one tube delivered a small drop (0.07 ml) of 3% (w/v) sucrose solution, and every third lick at the other tube delivered a small amount of alcohol-containing beverage, in particular Vodka Cruiser (Raspberry Flavor), containing 5.0% (w/v) ethanol. Rats were exposed daily to 70 min sessions in the lickometer until their intake of sucrose and/or alcohol and preferences for these beverages had stabilized.
One-half of the rats being tested were injected intra-peritoneally (I/P) with a single dosage of 0.3 mg/kg oxytocin, administered 10 min before their daily drinking session. The following day, these animals received a normal baseline test session with no further oxytocin dosing. The following day, one-half of the animals were administered I/P with 1 mg/kg oxytocin 10 min before the test session. Normal drinking sessions then continued for a further 4 days. During the same period, the other one-half of the rats were administered a placebo (vehicle) lacking oxytocin. Animals receiving the placebo were treated with oxytocin in exactly the same sequence as the treatment group, commencing one week after the start of testing. A final test to determine alcohol intake and alcohol preference was conducted after 55 days, to determine whether or not oxytocin induced lasting changes in drinking behavior.

[4] = acute oxytocin 0.3 and 1 mg/kg I/P, 10 min before 70 min session

CC[C@H](C)[C@@H]1NC(=O)[C@H](Cc2ccc(O)cc2)NC(=O)[C@@H](N)CSSC[C@@H](C(=O)N2CCC[C@H]2C(=O)N[C@@H](CC(C)C)C(=O)NCC(N)=O)NC(=O)[C@H](CC(N)=O)NC(=O)[C@H](CCC(N)=O)NC1=O [oxytocin]
consumption of water [1]: unchanged; also recorded: not affected | beer (alcohol) consumption ([1]; versus saline vehicle): significantly reduced beer consumption | alcohol consumed ([2]; ad libitum drinking sessions): consume less alcohol | bias to alcohol-related cues [2]: lower bias | positive response to the alcohol primer [2]: lower levels of positive response | reward motivation for alcohol consumption [2]: reduced reward motivation | subjective craving for alcohol [2]: lower | duration of the reduction in alcohol preference and alcohol intake ([3]; P rats, after 1 mg/kg oxytocin): 7-8 weeks | intake of Vodka Cruiser (alcohol consumption) [3, 4]: significant reduction; also recorded: reduced their alcohol consumption significantly | intake of sucrose solution [3, 4]: significant reduction | time intake of the alcoholic beverage remained suppressed ([3]; following oxytocin): at least 55 days | reduction of baseline alcohol intake ([3]; male and female P rats, 2 days following treatment, FIG. 1): about 50% | reduction in alcohol consumption, comparison between the sexes ([3]; male versus female P rats): comparable between the sexes | preference for alcohol (Vodka Cruiser versus 3% sucrose) ([3]; treated male and female P rats): shift towards a preference for alcohol-free solution; also recorded: reduced preference for alcohol

— patent US9119805B2, “Therapy and prevention of problem drinking” (THE UNIVERSITY OF SYDNEY, priority 2009, dated 2015)
